Patent US9433577B2, “Pharmaceutical composition comprising oligopeptides” (Merck Patent GmbH, priority 2009, dated 2016)
In brackets after ≈: the same amount, converted by molar mass.

Experiments:
[1] = Dynamic vapour experiments (Water Vapour Sorption, 25° C.); type: physicochemical; conditions: for mass loss in the first desorption cycle / initial drying step (0% rh) / total mass loss in the second desorption cycle: Water Vapour Sorption; for maximum weight gain upon water vapour adsorption (assembly of water molecules in the lattice): at elevated rh
Source text: (§1) A SMS DVS Intrinsic is used for the dynamic vapour experiments. The results are obtained by standard techniques as described in Rolf Hilfiker, ‘Polymorphism in the Pharmaceutical Industry’, Wiley-VCH. Weinheim 2006 (Chapter 9: Water Vapour Sorption, and references therein). […] Upon water vapour adsorption, an assembly of water molecules in the lattice is observed, with a maximum weight gain of approx. 8 wt % at elevated rh. In the second desorption cycle a total mass loss of approx. 9.9 wt % is observed. For a Cilengitide Dihydrate Di-Methanolate, the calculated Methanol content equals 9.3 wt %.
as §1, with “6.4” for “8”, “9.2” for “9.9”, “Di-Ethanolate,” for “Di-Methanolate,”, “Ethanol” for “Methanol”, “12.5” for “9.3”

[2] = Thermodynamic stability of crystalline forms (slurry / vapour atmosphere); type: physicochemical
Source text: Wetted material in this regard is preferably a mixture of the respective anhydrate with at least 5% by weight, more preferably at least 10% by weight and especially 20% by weight, of the respective aqueous system.
Upon water vapour adsorption, an assembly of water molecules in the lattice is observed, with a maximum weight gain of approx. 6.4 wt % at elevated rh. In the second desorption cycle a total mass loss of approx. 9.2 wt % is observed. For a Dihydrate Di-Ethanolate of the compound of formula Id, the calculated Ethanol content equals 12.5 wt %.
Also the pure form A1 can be manufactured by competitive slurry conversion experiments with a mixture of a pseudopolymorphic form (for example S1, S2, S3 or mixtures of these) and A1 (1:1) in Acetone, Acetonitrile, Isopropanol, physiological NaCl solution, Phosphate buffer (pH 7.4) and 1:1 (v:v) mixtures of Acetone, Acetonitrile, Isopropanol with Water at RT (25° C.).
Approx. 20 mg of a pseudopolymorphic form (for example S1, S2, S3 or mixtures of these) and 20 mg of form A1 of Cilengitide are dispersed in 200-700 μl solvent at room temperature. The dispersion is stirred for 5 days and additionally 26 days (long-term experiment) at RT (25° C.) by a magnetic stirrer and finally filtered. […]

[3] = Pharmacokinetic study in monkeys; conditions: in vivo, Cynomolgus monkey, animal 583, dose 11.8 mg/kg, suspension Cilengitide 300 mg/mL + DMPG 2 mg/mL, read-out: MSC1097999
Experimental: • Composition (Suspension) administered • Cilengitide: 300 mg/mL • DMPG: 2 mg/mL • Phenol: 0.5% • NaCl: 0.9% • Species/strain and number of animals • Monkey, Cynomolgus • Dose: 12 mg/kg (40 μL suspension/kg) • Sampling time points: 0.25, 0.5, 2, 4, 8 hours post dose: […]

[4] = Saturation solubility of Cilengitide solid forms in water and solvents; type: physicochemical
Experimental: Solubility in this regard is preferably refers to the saturation solubility, which is preferably the maximum mass of the respective compound, which can be solubilised or dissolved in a solvent at a respective temperature and at a specific pressure, preferably atmospheric pressure.
10 mL of solvent is placed in an amber glass ampul and sufficient substance is added to yield a distinct sediment that remains on the bottom after mixing thoroughly. After standing for 15 minutes and mixing again the ampuls are sealed and shaken in a thermostatically controlled water bath (20° C./16 hours or 25° C./16 hours, preferably 20° C./16 hours). Afterwards the ampuls are opened and the supernatant solution is filtered until the filtrate is clear. The content of the substance is determined photometrically in an aliquot by means of the specific adsorption coefficient. The respective dilution of the solvent without substance serves as blank. The solubility is expressed in the dimension of g substance in 100 mL or mg substance in 1 mL, preferably in mg substance in 1 mL. Preferably, this method is performed at normal atmospheric pressure and especially at the standardised “normal” atmospheric pressure, i.e. 1 atm=1.01325 bar.

## cyclo-(Arg-Gly-Asp-DPhe-NMeVal) [form S2]
[1]
  mass loss in the first desorption cycle / initial drying step (0% rh): approx. 6.5 wt %
  total mass loss in the second desorption cycle: approx. 9.2 wt %
  maximum weight gain upon water vapour adsorption (assembly of water molecules in the lattice): approx. 6.4 wt %
[1]; listed as crystalline form S2
  mass loss in the first desorption cycle / initial drying step (0% rh): approx. 6.5 wt %
  total mass loss in the second desorption cycle: approx. 9.2 wt %
  maximum weight gain upon water vapour adsorption (assembly of water molecules in the lattice): approx. 6.4 wt %
[2]; atmosphere of 100% Ethanol vapour
  thermodynamic stability of the form: thermodynamically stable form

## CC(C)[C@H]1C(=O)N[C@@H](CCCN=C(N)N)C(=O)NCC(=O)N[C@@H](CC(=O)O)C(=O)N[C@H](Cc2ccccc2)C(=O)N1C [MSC1097999]
[3]; 0.250 h
  level at 0.25 h: 586 ng/mL
[3]; 0.500 h
  level at 0.5 h: 967 ng/mL
[3]; 2.00 h
  level at 2 h: 892 ng/mL
[3]; 4.00 h
  level at 4 h: 605 ng/mL
[3]; 8.00 h
  level at 8 h: 537 ng/mL

## CC(C)[C@H]1C(=O)N[C@@H](CCCNC(=N)N)C(=O)NCC(=O)N[C@@H](CC(=O)O)C(=O)N[C@H](Cc2ccccc2)C(=O)N1C [crystalline form A1, cyclo-(Arg-Gly-Asp-DPhe-NMeVal)]
[4]; water, at 20° C. or 25° C., preferably at 20° C.
  solubility at 16 h: ~7000 µg/mL (≈ 11.9 mM)
[1]; water uptake up to 98% relative humidity
  hygroscopicity classification acc. to Ph. Eur. criteria: non-hygroscopic
[2]; in the presence of aqueous based solvents, absence of methanol and/or ethanol
  thermodynamic stability of the form: thermodynamically stable form

## CC(C)[C@H]1C(=O)N[C@@H](CCCNC(=N)N)C(=O)NCC(=O)N[C@@H](CC(=O)O)C(=O)N[C@H](Cc2ccccc2)C(=O)N1C [tetrahydrate Form S3, cyclo-(Arg-Gly-Asp-DPhe-NMeVal)]
[4]; solvent H2O/Acetone (1:1)
  Solubility: 22700 µg/mL
[1]
  mass loss in the first desorption cycle / initial drying step (0% rh): ca. 9 wt %
  maximum weight gain upon water vapour adsorption (assembly of water molecules in the lattice): ca. 10 wt %

## cyclo-(Arg-Gly-Asp-DPhe-NMeVal) [form S1]
[1]
  mass loss in the first desorption cycle / initial drying step (0% rh): approx. 8 wt %
  total mass loss in the second desorption cycle: approx. 9.9 wt %
  maximum weight gain upon water vapour adsorption (assembly of water molecules in the lattice): approx. 8 wt %
